{"source": "patent US20050271721A1", "about": "“Carvedilol-hydrophilic solutions” (priority 2000, published 2005)", "key": {"[1]": {"assay": "investigations into the gastrointestinal resorption of carvedilol", "format": "in vivo", "details": "passage through the gastrointestinal tract"}, "[2]": {"assay": "solubility of carvedilol in aqueous media", "format": "physicochemical", "details": "about pH 1-2"}, "[3]": {"assay": "dissolution of carvedilol in melted polyethylene glycol 6,000", "format": "physicochemical", "details": "polyethylene glycol 6,000 melted at about 70° C.", "description": "Thus, carvedilol can be dissolved in polyethylene glycol 6,000 which is melted at about 70° C. In this manner there are obtained highly concentrated solutions of carvedilol (up to 500 mg/ml), with the carvedilol being present distributed as a molecular dispersion in the solution. Moreover, further additives, for example cellulose derivatives such as hydroxypropylmethylcelluloses or hydroxypropylcelluloses, can be admixed in order to control the release rate of the active substance. Further, the compositions in accordance with the invention can contain highly dispersed silicon dioxide as an anti-caking agent."}, "[4]": {"assay": "resorption after peroral administration of rapid release carvedilol formulations", "format": "in vivo", "details": "e.g. the commercial formulation", "text": "In the case of the peroral administration of rapid release carvedilol formulations, e.g. the commercial formulation, resorption quotas of up to 80% are achieved, with a considerable part of the resorbed carvedilol being very rapidly metabolized."}}, "data": [{"smiles": "COc1ccccc1OCCNCC(O)COc1cccc2[nH]c3ccccc3c12", "note": "(stereo not shown) [carvedilol, 1-(4-carbazolyloxy)-3-[2-(2-methoxyphenoxy)ethyl-amino]-2-propanol]", "values": [{"measurement": "resorption in the ileum and colon relative to the stomach", "setting": "[1]", "result": "only a fraction of the resorption in the stomach"}, {"measurement": "solubility in the strongly acidic region", "setting": "[2]", "result": "very low solubility"}, {"measurement": "concentration of the carvedilol solution (molecular dispersion)", "setting": "[3]", "result": "up to 500 mg/ml"}, {"measurement": "resorption quota", "setting": "[4]", "result": "up to 80%"}]}]}
